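How tested: cells in 96-well plates exposed to compound for 48 hours at five concentrations. GI50 is the concentration that inhibits growth by half. Definition used: TGI = concentration required for complete inhibition of growth.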
What was measured:
Assay in all cases: NCI tumour cell line growth inhibition, 48 h
HL-60(TB) leukemia = test system: HL-60(TB) leukemia
NCI-H226 lung = test system: NCI-H226 lung
A498 renal = test system: A498 renal
SNB-19 CNS = test system: SNB-19 CNS
SNB-75 CNS = test system: SNB-75 CNS
MALME-3M melanoma = test system: MALME-3M melanoma
U251 CNS = test system: U251 CNS
OVCAR-3 ovarian = test system: OVCAR-3 ovarian
HCT-15 colon = test system: HCT-15 colon
SR leukemia = test system: SR leukemia
RPMI-8226 leukemia = test system: RPMI-8226 leukemia
T-47D breast = test system: T-47D breast
PC-3 prostate = test system: PC-3 prostate
HS 578T breast = test system: HS 578T breast
MCF7 breast = test system: MCF7 breast
IGROV1 ovarian = test system: IGROV1 ovarian
SW-620 colon = test system: SW-620 colon
UACC-62 melanoma = test system: UACC-62 melanoma
OVCAR-4 ovarian = test system: OVCAR-4 ovarian
HCC-2998 colon = test system: HCC-2998 colon
UACC-257 melanoma = test system: UACC-257 melanoma
RXF 393 renal = test system: RXF 393 renal
SF-268 CNS = test system: SF-268 CNS
LOX IMVI melanoma = test system: LOX IMVI melanoma
MDA-MB-231 breast = test system: MDA-MB-231 breast
NCI-H460 lung = test system: NCI-H460 lung
SN12C renal = test system: SN12C renal
SF-295 CNS = test system: SF-295 CNS
CAKI-1 renal = test system: CAKI-1 renal

Q: `C=C(C)[C@@H]1/C=C(/C(C)C)CC[C@@]2(C)OC2CC[C@H](C)CC1=O` (some centres not stated) was tested. Which GI50 (HL-60(TB) leukemia) did it give?
A: The GI50 was 25 µM.

Q: What about the TGI (HL-60(TB) leukemia) of the same compound?
A: The TGI was 76.2 µM.

Q: What about the GI50 (NCI-H226 lung) of the same compound?
A: The GI50 was greater than 38.8 µM.

Q: And the TGI (NCI-H226 lung)?
A: The TGI was greater than 66.9 µM.

Q: What about the GI50 (A498 renal) of the same compound?
A: Its GI50 is 31.6 µM.

Q: And the TGI (A498 renal)?
A: Its TGI is greater than 93.2 µM.

Q: And the GI50 (SNB-19 CNS)?
A: The GI50 was 60 µM.

Q: What about the TGI (SNB-19 CNS) of the same compound?
A: The TGI was greater than 100 µM.

Q: What about the GI50 (SNB-75 CNS) of the same compound?
A: The GI50 was greater than 100 µM.

Q: And the TGI (SNB-75 CNS)?
A: The TGI was greater than 100 µM.

Q: What about the GI50 (MALME-3M melanoma) of the same compound?
A: Its GI50 is 35.3 µM.

Q: What about the TGI (MALME-3M melanoma) of the same compound?
A: Its TGI is greater than 100 µM.

Q: And the GI50 (U251 CNS)?
A: The GI50 was 27.6 µM.

Q: And the TGI (U251 CNS)?
A: The TGI was greater than 62.2 µM.

Q: What about the GI50 (OVCAR-3 ovarian) of the same compound?
A: The GI50 was 24.8 µM.

Q: And the TGI (OVCAR-3 ovarian)?
A: The TGI was 66.1 µM.

Q: What about the GI50 (HCT-15 colon) of the same compound?
A: Its GI50 is 38.6 µM.

Q: What about the TGI (HCT-15 colon) of the same compound?
A: Its TGI is greater than 68.6 µM.

Q: And the GI50 (SR leukemia)?
A: Its GI50 is 2.18 µM.

Q: What about the GI50 (RPMI-8226 leukemia) of the same compound?
A: The GI50 was 20.1 µM.

Q: And the TGI (RPMI-8226 leukemia)?
A: The TGI was 54.1 µM.

Q: What about the GI50 (T-47D breast) of the same compound?
A: Its GI50 is 27.4 µM.

Q: What about the TGI (T-47D breast) of the same compound?
A: Its TGI is greater than 80.3 µM.

Q: What about the GI50 (PC-3 prostate) of the same compound?
A: The GI50 was 22.2 µM.

Q: What about the TGI (PC-3 prostate) of the same compound?
A: Its TGI is 54.3 µM.

Q: And the GI50 (HS 578T breast)?
A: The GI50 was 46 µM.

Q: What about the TGI (HS 578T breast) of the same compound?
A: The TGI was greater than 100 µM.

Q: And the GI50 (MCF7 breast)?
A: The GI50 was 27.7 µM.

Q: And the TGI (MCF7 breast)?
A: The TGI was greater than 63.8 µM.

Q: And the GI50 (IGROV1 ovarian)?
A: The GI50 was 24.7 µM.

Q: What about the TGI (IGROV1 ovarian) of the same compound?
A: The TGI was greater than 63.3 µM.

Q: What about the GI50 (SW-620 colon) of the same compound?
A: The GI50 was 25.4 µM.

Q: And the TGI (SW-620 colon)?
A: Its TGI is 65.7 µM.

Q: And the GI50 (UACC-62 melanoma)?
A: The GI50 was greater than 100 µM.

Q: And the TGI (UACC-62 melanoma)?
A: The TGI was greater than 100 µM.

Q: And the GI50 (OVCAR-4 ovarian)?
A: Its GI50 is 73.8 µM.

Q: And the TGI (OVCAR-4 ovarian)?
A: The TGI was greater than 100 µM.

Q: And the GI50 (HCC-2998 colon)?
A: Its GI50 is greater than 44.4 µM.

Q: What about the TGI (HCC-2998 colon) of the same compound?
A: Its TGI is greater than 65.9 µM.

Q: And the GI50 (UACC-257 melanoma)?
A: The GI50 was 47.6 µM.

Q: What about the TGI (UACC-257 melanoma) of the same compound?
A: The TGI was greater than 100 µM.

Q: What about the GI50 (RXF 393 renal) of the same compound?
A: The GI50 was 3.37 µM.

Q: And the TGI (RXF 393 renal)?
A: Its TGI is greater than 49.1 µM.

Q: And the GI50 (SF-268 CNS)?
A: The GI50 was 37.7 µM.

Q: What about the TGI (SF-268 CNS) of the same compound?
A: Its TGI is greater than 100 µM.

Q: And the GI50 (LOX IMVI melanoma)?
A: The GI50 was 22.4 µM.

Q: What about the TGI (LOX IMVI melanoma) of the same compound?
A: Its TGI is greater than 57.7 µM.

Q: What about the GI50 (MDA-MB-231 breast) of the same compound?
A: Its GI50 is 19.3 µM.

Q: And the TGI (MDA-MB-231 breast)?
A: Its TGI is 49.5 µM.

Q: And the GI50 (NCI-H460 lung)?
A: The GI50 was 18.7 µM.

Q: What about the TGI (NCI-H460 lung) of the same compound?
A: The TGI was 37.7 µM.

Q: And the GI50 (SN12C renal)?
A: The GI50 was 21 µM.

Q: And the TGI (SN12C renal)?
A: The TGI was 46 µM.

Q: What about the GI50 (SF-295 CNS) of the same compound?
A: Its GI50 is 27.4 µM.

Q: And the TGI (SF-295 CNS)?
A: The TGI was greater than 71.6 µM.

Q: And the GI50 (CAKI-1 renal)?
A: Its GI50 is 24.1 µM.

Q: And the TGI (CAKI-1 renal)?
A: The TGI was 53.8 µM.
